This is an account of results in US4004023A, “1-(4-Butylphenyl)-1-(3,4-methylenedioxyphenyl)-2-nitroalkanes and synergistic insecticidal mixtures therewith” (Mobil Oil Corporation, priority 1975, dated 1977).

Holding throughout (type): in vivo
Series [1] concerns housefly. Description: whole plant or invertebrate. Conditions: Musca domestica, adult houseflies, mortality at 24 hours, read-out: percent kill, housefly (HF). Here is the method: (§1) The new 1-(4-butylphenyl)-1-(3,4-methylenedioxyphenyl)-2-nitroalkanes of this invention (Examples 4-6) were evaluated in standard greenhouse insecticide tests using housefly (HF), Mexican bean beetle (MB), Southern armyworm (SA) and yellow fever mosquito (YF). The rates of application were 500 and 100 ppm of active ingredient except in the mosquito test where test rates were 10 and 1 ppm. The results as set forth in Table I below indicate the percent kill of each insect species.
(§2) Housefly; 1 milliliter of an aqueous solution or suspension of the test compound was pipeted into a 9 cm. petri dish containing filter paper and 0.1 gram of granular sugar. Ten adult houseflies were admitted and the dish closed. Observations were made periodically for knockdown and at 24 hours for mortality.

The subject of a further series is Mexican bean beetle. Description: whole plant or invertebrate. Conditions: Epilachna varivestis, third or fourth instar larvae, 48 to 72 hour, read-out: percent kill, Mexican bean beetle (MB). Here is the method: as §1
(§3) Southern armyworm and Mexican bean beetle; lima bean leaves of uniform size were momentarily dipped in a water-acetone solution of the test compound and the treated leaves were then placed on moistened filter paper in 9 cm. petri dishes and allowed to air dry. When dry, five, third or fourth instar larvae were introduced and encouraged to feed on the treated foliage by means of confinement. The dishes were closed and held for observation of mortality and feeding during a 48 to 72 hour period.

The subject of the next series is Southern armyworm. Description: whole plant or invertebrate. The following applies: Spodoptera eridania, in Phaseolus lunatus, third or fourth instar larvae, 48 to 72 hour, read-out: percent kill, Southern armyworm (SA). Here is the method:
as §1, §3

The next series has as its system yellow fever mosquito. Description: whole plant or invertebrate. Conditions: Aedes aegypti, fourth stage larvae, 24 hour exposure, read-out: percent kill, yellow fever mosquito (YF); for mortality at 1 ppm: 1 ppm (line printed as 100 ppm; footnote: 10 and 1 ppm for YF); for mortality at 10 ppm: 10 ppm (line printed as 500 ppm; footnote: 10 and 1 ppm for YF). Here is the method: as §1
Yellow fever mosquito; fourth stage larvae were exposed to a solution of the active compound in water. The active material was initially dissolved in acetone and then added to the water. The compounds were screened at 10 ppm and at 1 ppm using approximately 10 larvae per 100 ml of treated water. Each treatment was replicated twice. Mortality was determined after 24 hour exposure.

Series [2] deals with housefly. Description: insecticide synergist test of mixtures on housefly. Conditions: 25 ppm (0.0025 wt. %) total of both active ingredients; numbers in parentheses are % in mixture; 1440 min. Here is the method: as §2
The new 1-(4-butylphenyl)-1-(3,4-methylenedioxyphenyl)-2-nitroalkanes of this invention were evaluated as insecticide synergists in standard insecticide tests. In general the compounds of this invention were combined with the insecticide -- 1-(p-tert-butylphenyl)-1-(p-ethoxyphenyl)-2-nitrobutane (pending application Serial No. 410,935, filed October 29, 1973) designated as Example 8 above -- in varying proportions starting from, for example, 90% Example 4, 5 or 6 plus 10% Example 8 and decreasing to, for example 10% Example 4, 5 or 6, plus 90% Example 8. In all cases, the total sum of active ingredients (i.e. Examples 4, 5 or 6 plus 8) equaled 25 ppm. These mixtures were tested on housefly following the standard greenhouse test procedure, outlined above. The results as set forth below indicate the percent kill (or percent control) of the insect species: […]

`CCC(C(c1ccc(C(C)(C)C)cc1)c1ccc2c(c1)OCO2)[N+](=O)[O-]` (centres unmarked) [Example 4, 1-(4-tert-Butylphenyl)-1-(3,4-methylenedioxyphenyl)-2-nitrobutane]: the mortality at 100 ppm is 20% with housefly [1], 100% with Mexican bean beetle and 100% in the series on Southern armyworm. Also, the mortality at 500 ppm in the series on housefly [1], with Mexican bean beetle and in the series on Southern armyworm was 100% throughout. Moreover, in the series with yellow fever mosquito, the mortality at 1 ppm stood at 40%. Further, the mortality at 10 ppm in the series with yellow fever mosquito stood at 100%.
As to `CC(C(c1ccc(C(C)(C)C)cc1)c1ccc2c(c1)OCO2)[N+](=O)[O-]` (centres unmarked) [Example 5, 1-(4-tert-Butylphenyl)-1-(3,4-methylenedioxyphenyl)-2-nitropropane], in the series with housefly [1], the mortality at 100 ppm was 10% and the mortality at 500 ppm is 100%. For the same compound, in the series with Mexican bean beetle, the mortality at 100 ppm is 100% and the mortality at 500 ppm turned out to be 100%. For the same compound, in the series on Southern armyworm, the mortality at 100 ppm was found to be 80% and the mortality at 500 ppm was 100%. Further, in the series on yellow fever mosquito, the mortality at 1 ppm was 100% and the mortality at 10 ppm turned out to be 100%.
Regarding `CCC(C)c1ccc(C(c2ccc3c(c2)OCO3)C(CC)[N+](=O)[O-])cc1` (centres unmarked) [Example 6, 1-(4-sec-Butylphenyl)-1-(3,4-methylenedioxyphenyl)-2-nitrobutane], in the series with housefly [1], the mortality at 100 ppm is 100% and the mortality at 500 ppm worked out at 100%. Besides, in the series with Mexican bean beetle, the mortality at 100 ppm turned out to be 90% and the mortality at 500 ppm is 100%. Besides, in the series with Southern armyworm, the mortality at 100 ppm was found to be 30% and the mortality at 500 ppm stood at 100%. Also, in the series on yellow fever mosquito, the mortality at 1 ppm was found to be 100% and the mortality at 10 ppm was 100%. Further, the “% CONTROL (percent kill or percent control), housefly” value with housefly [2] came out at 0%.
For the compound `CCOc1ccc(C(c2ccc(C(C)(C)C)cc2)C(CC)[N+](=O)[O-])cc1` (centres unmarked) [Example 8, 1-(p-tert-Butylphenyl)-1-(p-ethoxyphenyl)-2-nitrobutane], the “% CONTROL (percent kill or percent control), housefly” value with housefly [2] is given as 40%.
